Experimental data as given in patent publication US4725600A, “Pyrimidine compounds having activity as a cardiotonic anti-hypertensive cerebrovascular vasodilator and anti-platelet aggregation agent” (Fujisawa Pharmaceutical Co., Ltd., priority 1984, dated 1988).
Where two headings read alike, the source gives them in different places.

Columns and labels:
[1] = tested on: Mongrel dogs; experiment: Cardiotonic activity (Test Method A): percentage of dp/dt max change in anesthetized mongrel dogs; assay type: in vivo; conditions: Canis lupus familiaris, iv, injected into the femoral vein, read-out: dp/dt M.C. (percentage of dp/dt max changes)
Method: Mongrel dogs of either sex were anesthetized with sodium pentobarbital, 35 mg/kg, i.p. The animals were allowed to breathe spontaneously. The left carotid artery was isolated and a catheter (USCI, #8F) filled with heparinized saline was inserted and advanced into the left ventricle. The catheter was connected to a pressure transducer (Nihonkohden, MPU-0.5A) to measure the left ventricular pressure, from which dp/dt max was derived by analog computing. To measure the systemic blood pressure the left femoral artery was cannulated. The blood pressure pulse was used to trigger a heart rate meter. Another catheter was positioned in the vena cave through right femoral vein for injection of drugs. Systemic blood pressure, left ventricular pressure, dp/dt max and heart rate were recorded simultaneously on a polygram (Nihonkohden, RJG-4008).
Test compound was dissolved in distilled water (0.2 ml/kg) or dimethyl sulfoxide (0.04 ml/kg) and injected into the femoral vein. The parameters after dosing were compared with those during the predosing period.
Test results were represented in terms of percentage of dp/dt max changes (dp/dt M.C.) calculated by following formula, and are shown in table 1. [formula]

[2] = tested on: Platelet rich plasma (PRP); experiment: Anti-platelet activity (Test Method B): inhibition of ADP- or collagen-induced aggregation in rabbit platelet rich plasma; assay type: cell-based; conditions: Oryctolagus cuniculus, 37° C.
Method: Platelet rich plasma (PRP) which contains 6.5-7.5×10^8 platelet/ml was prepared from rabbit blood. To the 200 μl of PRP, 5 μl of calcium chloride (1 mM) and 50 μl of pH 7.4 Tris-acetate solution (5 mM) containing 120 mM NaCl and test compound were added successively, and then stirred for 2 min. at 37° C. To the solution 5 μl of adenosine diphosphate (ADP) (2.5 μM) or collagen (2.5 μg/ml) was added as an agregation inducer. Aggregation was measured by using an aggregometer (NKK HEMA TRACER 1).

[3] = tested on: male Wistar rats (DOCA); experiment: Antihypertensive activity (Test Method C): maximum decrease of blood pressure in DOCA-treated uninephrectomized rats; assay type: in vivo; conditions: 1.0 mg/kg, oral; DOCA hypertensive rats, mean arterial pressure
Method: Antihypertensive activity
Five-week old male Wistar rats were uninephrectomized under anesthesia. Deoxycorticosterone acetate (DOCA) (30 mg/kg), suspended in peanut oil, was injected subcutaneously twice a week and 1% saline was substituted for the drinking water. Animals with mean blood pressure 150-200 mmHg were used for experiment between 5 and 7 weeks after surgery.
The test compounds were administered orally. Blood pressure was measured at the femoral artery by means of a pressure transducer and recorded as electrically integrated values of mean arterial pressure.

Question: `COc1ccc(-c2cc(=Nc3c(C)cc(C)cc3C)n(C)c(N(C)Cc3ccccc3)n2)cc1OC` [Example 3, 3,4-dihydro-6-(3,4-dimethoxyphenyl)-3-methyl-2-(N-methyl-N-benzylamino)-4-(2,4,6-trimethylphenylimino)pyrimidine] was tested. Which change in vivo at 0.1 mg/kg [1] did it give?
Answer: 29%

Question: With `CCn1c(C)nc(-c2ccc(OC)c(OC)c2)cc1=Nc1c(C)cc(C)cc1C` [Examples (17-12) and (19-12), 3,4-Dihydro-6-(3,4-dimethoxyphenyl)-3-ethyl-2-methyl-4-(2,4,6-trimethylphenylimino)pyrimidine] as the molecule, how does the change in vivo at 0.1 mg/kg [1] read?
Answer: 87%

Question: Which change in vivo at 0.1 mg/kg [1] does the source give for `COc1ccc(-c2cc(=Nc3c(C)cc(C)cc3C)n(C)cn2)cc1OC` [Example 2, 3,4-dihydro-6-(3,4-dimethoxyphenyl)-3-methyl-4-(2,4,6-trimethylphenylimino)pyrimidine] here?
Answer: 114%

Question: What about the IC50 ([2]; aggregation inducer ADP (2.5 μM), pH 7.4, read-out: ID50, ADP) of the same molecule?
Answer: 260 nM

Question: What about the IC50 ([2]; aggregation inducer collagen (2.5 μg/ml), pH 7.4, read-out: ID50, Collagen) of the same molecule?
Answer: 360 nM

Question: And the “Effect Max (mean ratio of maximum decrease of blood pressure)” value [3]?
Answer: 39.0%

Question: `COc1ccc(-c2cc(=Nc3c(C)cc(C)cc3C)n(C)c(Cl)n2)cc1OC` [Example 1, 2-chloro-3,4-dihydro-6-(3,4-dimethoxyphenyl)-3-methyl-4-(2,4,6-trimethylphenylimino)pyrimidine] was tested. Which change in vivo at 0.1 mg/kg [1] did it give?
Answer: 45%

Question: For `COc1ccc(-c2cc(=Nc3c(C)cc(C)cc3C)n(C)c3nncn23)cc1OC` [Example 11, 7,8-dihydro-5-(3,4-dimethoxyphenyl)-8-methyl-7-(2,4,6-trimethylphenylimino)-1,2,4-triazolo[4,3-a]pyrimidine], which change in vivo at 0.1 mg/kg [1] is on record?
Answer: 60%

Question: With `Nc1cc(-c2ccncc2)c[nH]c1=O` [Amrinone, 3-Amino-5-(4-pyridyl)-2(1H)-pyridinone, reference compound] as the molecule, how does the change in vivo at 0.1 mg/kg [1] read?
Answer: 9%

Question: `COc1ccc(-c2cc(=Nc3c(C)cc(C)cc3C)n(C)c(C)n2)cc1OC` [Example 18, 3,4-dihydro-6-(3,4-dimethoxyphenyl)-2,3-dimethyl-4-(2,4,6-trimethylphenylimino)pyrimidine] was tested. Which change in vivo at 0.1 mg/kg [1] did it give?
Answer: 72%

Question: For `COc1ccc(-c2cc(=Nc3c(C)cc(C)cc3C)n(C)c3nnnn23)cc1OC` [Example 12, 4,5-dihydro-7-(3,4-dimethoxyphenyl)-4-methyl-5-(2,4,6-trimethylphenylimino)tetrazolo[1,5-a]pyrimidine], which change in vivo at 0.1 mg/kg [1] is on record?
Answer: 152%

Question: Which change in vivo at 0.1 mg/kg [1] does the source give for `COc1ccc(-c2cc(N(C)c3c(C)cc(C)cc3C)nc(C)n2)cc1OC` [Examples (17-6) and 20, 6-(3,4-dimethoxyphenyl)-2-methyl-4-[N-methyl-N-(2,4,6-trimethylphenyl)amino]pyrimidine] here?
Answer: 76%
